pIC50: −log10 of the molar value. Where two headings read alike, the source gives them in different places.
Target: NLRP3 inflammasome (Homo sapiens (Human), UniProt Q96P20)
Test: Evaluation of NLRP3 inflammasome inhibitory activity (inhibition of IL-1β production in THP1-Null cells, LPS/Nigericin)
[1] = IL-1β production in THP1-Null cells, PMA/LPS primed, Nigericin 7.5 μmol/L
[2] = inhibition of IL-1β production in THP1-Null cells

NLRP3 inflammasome, sequence (Q96P20 whole entry): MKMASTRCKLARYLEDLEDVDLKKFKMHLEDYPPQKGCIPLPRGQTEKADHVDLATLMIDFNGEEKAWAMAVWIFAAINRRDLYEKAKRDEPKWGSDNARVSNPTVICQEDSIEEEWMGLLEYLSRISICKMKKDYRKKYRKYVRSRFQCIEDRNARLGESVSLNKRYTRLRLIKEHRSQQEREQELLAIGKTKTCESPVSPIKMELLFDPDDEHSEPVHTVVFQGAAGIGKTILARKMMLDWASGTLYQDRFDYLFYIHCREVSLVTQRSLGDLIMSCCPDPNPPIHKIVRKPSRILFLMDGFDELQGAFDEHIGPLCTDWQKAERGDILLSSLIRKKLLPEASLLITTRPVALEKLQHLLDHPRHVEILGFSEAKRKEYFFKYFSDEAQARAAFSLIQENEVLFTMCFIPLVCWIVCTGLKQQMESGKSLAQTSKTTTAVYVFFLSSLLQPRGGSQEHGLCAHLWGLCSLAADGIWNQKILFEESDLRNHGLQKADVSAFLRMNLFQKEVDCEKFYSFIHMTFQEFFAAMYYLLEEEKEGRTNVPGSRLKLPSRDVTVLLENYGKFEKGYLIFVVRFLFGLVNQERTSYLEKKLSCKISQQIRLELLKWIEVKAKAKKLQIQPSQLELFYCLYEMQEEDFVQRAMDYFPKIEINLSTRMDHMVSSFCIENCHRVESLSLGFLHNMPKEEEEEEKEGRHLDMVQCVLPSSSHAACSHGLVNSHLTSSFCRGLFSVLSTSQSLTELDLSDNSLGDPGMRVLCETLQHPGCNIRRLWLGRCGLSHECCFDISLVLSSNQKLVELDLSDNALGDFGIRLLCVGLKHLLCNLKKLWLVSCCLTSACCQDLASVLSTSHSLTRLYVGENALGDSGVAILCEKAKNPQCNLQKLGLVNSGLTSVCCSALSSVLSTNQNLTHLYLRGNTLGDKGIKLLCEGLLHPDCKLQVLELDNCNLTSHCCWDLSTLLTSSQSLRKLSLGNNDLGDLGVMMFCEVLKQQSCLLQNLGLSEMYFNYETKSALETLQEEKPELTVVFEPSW

| Compound | pIC50 [1] | pIC50 [2] | also measured |
| --- | --- | --- | --- |
| CCOC(=O)c1c2c(nn1C)CN(S(=O)(=O)NC(=O)c1coc(Nc3c4c(c(F)c5c3CCC5)CCC4)n1)C2 [Example 67] | 6.08 | – | – |
| COC1COCCN(S(=O)(=O)NC(=O)c2coc(Nc3cc(C(F)(F)F)c(F)cc3C)n2)C1 (racemic) [Example 2-244] | – | – | pIC50: 7.29 |
| Cc1ccc(C(F)(F)F)cc1Nc1nc(C(=O)NS(=O)(=O)N2CCCC2)co1 [Example 76] | 7.04 | – | – |
| 2-((8-chloro-1,2,3,5,6,7-hexahydro-s-indacen-4-yl)amino)-N—(N,N-dimethylsulfamoyl)oxazole-4-carboxamide [Example 23] | > 7.52 | – | – |
| CS(=O)(=O)C1CCN(S(=O)(=O)NC(=O)c2coc(Nc3c4c(c(Cl)c5c3CCC5)CCC4)n2)CC1 [Example 43] | > 7.52 | – | – |
| CN(C)S(=O)(=O)NC(=O)c1cnc(Nc2cccc3c2CCC3)o1 [Example 19] | 5.24 | – | – |
| CC(C)N(C)S(=O)(=O)NC(=O)c1cnc(Nc2c3c(cc4c2CCC4)CCC3)o1 [Example 15] | > 7.52 | – | – |
| O=C(NS(=O)(=O)N1CCCC1)c1coc(Nc2c3c(c(F)c4c2CCC4)CCC3)n1 [Example 35] | > 7.52 | – | – |
| CC(C)N(C)S(=O)(=O)NC(=O)c1coc(Nc2c3c(cc4c2CCC4)CCC3)n1 [Example 21] | 7.37 | – | – |
| CCC1COCCN1S(=O)(=O)NC(=O)c1coc(Nc2cc(C(C)C)ccc2C)n1 (racemic) [Example 2-082] | – | – | pIC50: 6.80 |
| O=C(NS(=O)(=O)N1CCCC1C(F)(F)F)c1coc(Nc2c3c(c(Cl)c4c2CCC4)CCC3)n1 (racemic) [Example 40] | – | – | pIC50: 6.03 |
| Cc1ccc(C(F)(F)F)cc1Nc1nc(C(=O)NS(=O)(=O)N2CCCN(C(=O)C3CCOC3)CC2)co1 (racemic) [Example 2-216] | – | – | pIC50: 6.74 |
| Cc1ccc2c(c1Nc1nc(C(=O)NS(=O)(=O)N(C)C)co1)CCC2 [Example 69] | 6.82 | – | – |
| COC1CN(S(=O)(=O)NC(=O)c2cnc(Nc3c4c(cc5c3CCC5)CCC4)o2)C1Cl (racemic) [Example 12] | – | – | pIC50: 5.40 |
| CCOC1COCCN(S(=O)(=O)NC(=O)c2coc(Nc3cc(C(C)C)ccc3C)n2)C1 (racemic) [Example 2-319] | – | – | pIC50: 6.96 |
| CCCCS(=O)(=O)N1CCN(S(=O)(=O)NC(=O)c2coc(Nc3cc(C(F)(F)F)ccc3C)n2)CC(OC)C1 (racemic) [Example 2-204] | – | – | pIC50: 7.54 |

The next lines start with results.

| pIC50 [1] | pIC50 [2] | Compound | also measured |
| --- | --- | --- | --- |
| – | 7.20 | Cc1ccc(C2CC2)cc1Nc1nc(C(=O)NS(=O)(=O)N2CCOCC2)co1 [Example 2-001] | – |
| – | 7.10 | Cc1ccc(C(F)(F)F)cc1Nc1nc(C(=O)NS(=O)(=O)N2CCOC(C(=O)N(C)C)CC2)co1 (centres unmarked) [Example 2-263] | – |
| – | 5.92 | CC(C)c1nn(C(C)C)cc1Nc1nc(C(=O)NS(=O)(=O)N(C)C)co1 [Example 2-089] | – |
| – | 7.34 | CCc1ccc(C(F)(F)F)cc1Nc1nc(C(=O)NS(=O)(=O)N(C)C)co1 [Example 2-060] | – |
| – | 7.68 | Cc1ccc(C(F)(F)F)cc1Nc1nc(C(=O)NS(=O)(=O)N2CCCN(S(=O)(=O)N(C)C)CC2)co1 [Example 2-099] | – |
| – | 7.25 | Cc1ccc(C2CC2)cc1Nc1nc(C(=O)NS(=O)(=O)N2CCCOCC2)co1 [Example 2-042] | – |
| – | 7.22 | Cc1ccc(C2(C)CC2)cc1Nc1nc(C(=O)NS(=O)(=O)N(C)C)co1 [Example 2-044] | – |
| – | 7.33 | CCCCS(=O)(=O)N1CCCN(S(=O)(=O)NC(=O)c2coc(Nc3nn(C(C)C)cc3C(C)C)n2)CC1 [Example 2-177] | – |
| – | 7.66 | CCCS(=O)(=O)N1CCCN(S(=O)(=O)NC(=O)c2coc(Nc3cc(C)ccc3CC)n2)CC1 [Example 2-257] | – |
| – | 8.00 | CCCS(=O)(=O)N1CCCN(S(=O)(=O)NC(=O)c2coc(Nc3cc(C(F)(F)F)ccc3C)n2)CC1 [Example 2-100] | – |
| – | 7.19 | Cc1ccc(C(F)(F)F)cc1Nc1nc(C(=O)NS(=O)(=O)N2CCCn3nccc3C2)co1 [Example 2-254] | – |
| – | 7.70 | Cc1ccc(C(F)(F)F)cc1Nc1nc(C(=O)NS(=O)(=O)N2CCCN(S(=O)(=O)C3CC3)CC2)co1 [Example 2-103] | – |
| – | 6.89 | COc1ccc(C(F)(F)F)cc1Nc1nc(C(=O)NS(=O)(=O)N2CCCOCC2)co1 [Example 2-137] | – |

From US20230399319A1, “Acylsulfamide Compound and Pharmaceutical Use Therefor” (Japan Tobacco Inc., priority 2019, published 2023)
